Measurements as given in publication PMC12463676, “Small-molecule dissolution of stress granules by redox modulation benefits ALS models” (Nature Chemical Biology, 2025).
Substitutions are numbered along the chain they refer to.

Columns and labels:
[1] = target: T1, FUS–GFP (Homo sapiens, UniProt P35637, G156E); assay: condensate ageing: FRAP and fibre formation; format: biochemical; details: 30 uM compound, 50 mM KCl, 1 mM DTT, pH 7.4, shaking; condensates
T1 construct: full-length FUS with C-terminal GFP; 6xHis-MBP tag cleaved by 3C protease; Sf9 insect cells; condensates at low salt
T1 sequence (P35637 1-526 G156E): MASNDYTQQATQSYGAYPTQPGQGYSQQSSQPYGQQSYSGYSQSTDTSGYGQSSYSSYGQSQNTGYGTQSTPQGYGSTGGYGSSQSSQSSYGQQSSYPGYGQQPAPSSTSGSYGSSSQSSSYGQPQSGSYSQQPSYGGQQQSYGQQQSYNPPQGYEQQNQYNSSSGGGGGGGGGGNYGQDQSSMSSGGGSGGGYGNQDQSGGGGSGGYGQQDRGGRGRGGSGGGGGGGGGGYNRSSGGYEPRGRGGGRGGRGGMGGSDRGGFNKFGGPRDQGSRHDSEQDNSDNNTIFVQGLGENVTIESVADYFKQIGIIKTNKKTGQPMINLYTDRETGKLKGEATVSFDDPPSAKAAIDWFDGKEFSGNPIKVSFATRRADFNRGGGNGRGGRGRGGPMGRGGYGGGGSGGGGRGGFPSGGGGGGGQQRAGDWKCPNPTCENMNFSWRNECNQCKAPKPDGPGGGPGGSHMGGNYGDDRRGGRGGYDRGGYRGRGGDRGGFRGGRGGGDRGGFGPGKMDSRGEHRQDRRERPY

[2] = target: T2, FUS–GFP (Homo sapiens, UniProt P35637); assay: imaging of FUS-GFP condensates in vitro; format: biochemical; details: 100 uM compound, 50 mM KCl, 1 mM DTT, pH 7.4, 0.7 uM FUS-GFP
T2 construct: full-length FUS with C-terminal GFP; 6xHis-MBP tag cleaved by 3C protease; Sf9 insect cells; condensates at low salt
T2 sequence (P35637 1-526): T1 sequence (P35637 1-526 G156E) with E156G

Structure (SMILES) | condensate ageing: FRAP and fibre formation [1] | imaging of FUS-GFP condensates in vitro [2]
NC(=O)CCCCC1CCSS1 (racemic) [lipoamide] | Both lipoamide and lipoic acid reduced FUS-G156E–GFP condensate hardening and fiber formation | 
O=C(O)CCCC[C@@H]1CCSS1 [lipoic acid] | Both lipoamide and lipoic acid reduced FUS-G156E–GFP condensate hardening and fiber formation | 
O=C1c2c(O)ccc(O)c2C(=O)c2c(NCCNCCO)ccc(NCCNCCO)c21 [mitoxantrone] |  | the fewer smaller drops with mitoxantrone
